Source: patent US20260297016A1, “THERAPEUTIC COMPOUNDS” (REGENTS OF THE UNIVERSITY OF MINNESOTA, priority 2023, published 2026)
“Also recorded” adds a separate entry of the source.

Tests used:
STING = target: T1, STING (Homo sapiens, UniProt Q86WV6, G230A/H232R/R293Q/R71H); test: IRF-Lucia Reporter STING Inhibition Assay (THP-1 Lucia ISG cells); assay type: cell-based; settings: 1 μM 2,3-cGAMP, 20 hours
T1 construct: THP-1 Lucia ISG cells (InvivoGen, thpl-isg); host or cells: THP-1 Lucia ISG cells
Procedure: IRF-Lucia Reporter STING Inhibition Assay. […] Cells were incubated at 37° C. in a 5% CO2 atmosphere with varying concentrations of test compound for 1.5 hours, followed by treatment with 1 μM 2,3-cGAMP (InvivoGen, tlrl-nacga23-02) and incubated for 20 hours. A 20 μL aliquot of cell suspension was added to 50 μL. QUANTI-Luc™ reagent (InvivoGen, rep-qlc4lg2), and the resulting luminescence is measured by a GloMax Explorer (Promega) with a 0.1 second read time.

661 W cells [1] = settings: 12.5 μM, 2 hours, H2O2 500 μM, 24 hours, n=6
661 W cells [2] = test: 4-HNE-induced ROS production in 661 W cells; settings: 12.5 μM, 2 hours, 4-HNE 10 μM, 24 hours, n=6
661 W cells [3] = test: Viability of 661 W cells after H2O2 (trypan blue exclusion)
HMC3 cells = settings: 12.5 μM, 200 μM TBHP
661 W cells [4] = test: Viability of 661 W cells after 4-HNE (trypan blue exclusion)
PPARα = settings: cited from earlier work
[5] = system: patients with type 2 diabetes; settings: orally administered, FIELD and ACCORD; cited from earlier work
PPAR subtypes = settings: cited from earlier work

T1 sequence (Q86WV6 whole entry R71H/G230A/H232R/R293Q): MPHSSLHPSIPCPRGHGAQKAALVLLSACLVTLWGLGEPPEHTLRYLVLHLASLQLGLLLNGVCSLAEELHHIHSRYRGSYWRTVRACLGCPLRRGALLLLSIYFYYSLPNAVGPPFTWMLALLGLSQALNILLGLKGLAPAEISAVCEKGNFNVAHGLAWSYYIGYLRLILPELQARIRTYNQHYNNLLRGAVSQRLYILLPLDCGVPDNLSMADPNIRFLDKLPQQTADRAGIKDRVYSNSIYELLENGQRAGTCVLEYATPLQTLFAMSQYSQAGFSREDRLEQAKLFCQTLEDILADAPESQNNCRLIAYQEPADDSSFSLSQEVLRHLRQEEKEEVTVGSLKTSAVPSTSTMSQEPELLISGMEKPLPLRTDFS

SMILES | % STING INHIBITION, % at 12.5 μm (STING) | % STING INHIBITION, % at 25 μm (STING) | % STING INHIBITION, % at 50 μm (STING) | other results
O=C(O)c1cc(O)cc(NCc2ccc(-c3ccc(F)cc3)cc2)c1 [Example 45, 3-(((4′-Fluoro-[1,1′-biphenyl]-4-yl)methyl)amino)-5-hydroxybenzoic acid] | 9% | 50% | 80% | 
COc1ccc(-c2ccc(CNc3ccc(O)c(C(=O)O)c3)cc2)cc1 [Example 33] | 0% | 0% | 0% | 
COc1ccc(NCc2ccc(-c3ccc(F)cc3)cc2)cc1C(=O)O [Example 46, 5-(((4′-fluoro-[1,1′-biphenyl]-4-yl)methyl)amino)-2-methoxybenzoic acid] | 9% | 31% | 53% | 
COc1cc(F)ccc1-c1ccc(CNc2ccc(O)c(C(=O)O)c2)cc1 [Example 39, 5-(((4′-Fluoro-2′-methoxy-[1,1′-biphenyl]-4-yl)methyl)amino)-2-hydroxybenzoic acid] | 0% | 0% | 0% | 
O=C(Nc1ccc(O)c(NS(=O)(=O)c2ccc(F)cc2)c1)c1ccc(-c2ccccc2)cc1 [SN-011] |  |  |  | H2O2-induced ROS production (661 W cells [1]): the difference between SN011 and Example 17 is less pronounced; 4-HNE-induced production of ROS (661 W cells [2]): the difference between SN011 and Example 17 is less pronounced; cell viability after H2O2 (661 W cells [3]; 1 μM and 10 μM, H2O2 500 μM, 24 hours, n=3): fails to show a dose-response improvement between 1 μM and 10 μM; also recorded: Improvement in cell viability; cell viability after H2O2 (661 W cells [3]; 1 μM, SN-011 vs Example 31): no significant difference; TBHP-induced production of ROS (oxidative stress) (HMC3 cells): greater reduction in oxidative stress than PPARα agonism (Example 31 (BH400); cell viability after 4-HNE (661 W cells [4]; 1 μM and 10 μM, 4-HNE 10 μM, 24 hr, n=3): fails to show a dose-response improvement between 1 μM and 10 μM; also recorded: Improvement in cell viability; cell viability after 4-HNE (661 W cells [4]; 1 μM, SN-011 vs Example 31): no significant difference
Cc1cc(-c2ccc(CNc3ccc(O)c(C(=O)O)c3)cc2)ccc1F [Example 44, 5-(((4′-Fluoro-3′-methyl-[1,1′-biphenyl]-4-yl)methyl)amino)-2-hydroxybenzoic acid] | 0% | 12% | 81% | 
CC(C)(Oc1ccc(C(=O)c2ccc(Cl)cc2)cc1)C(=O)O [fenofibric acid] |  |  |  | agonism of PPARα by major metabolite (PPARα; major metabolite of fenofibrate): agonism of PPARα
CC(C)OC(=O)C(C)(C)Oc1ccc(C(=O)c2ccc(Cl)cc2)cc1 [fenofibrate] |  |  |  | progression of DR and other microvascular endpoints [5]: significantly reduced the progression of DR and other microvascular endpoints; affinity for PPARα (PPARα): low affinity for PPARα; selectivity among PPAR subtypes (PPAR subtypes): lack of selectivity among PPAR subtypes
O=C(O)c1cc(NCc2ccc(-c3ccc(O)cc3)cc2)ccc1O [Example 35, 2-Hydroxy-5-(((4′-hydroxy-[1,1′-biphenyl]-4-yl)methyl)amino)benzoic acid] | 0% | 0% | 0% | 
COc1ccc(NCc2ccc(-c3ccc(F)cc3)cc2)cc1C#N [Example 43, 5-(((4′-Fluoro-[1,1′-biphenyl]-4-yl)methyl)amino)-2-methoxybenzonitrile] | 0% | 0% | 0% | 
Oc1ccc(NCc2ccc(-c3ccc(F)cc3)cc2)cc1-c1nnn[nH]1 [Example 48] | 0% | 32% | 77% | 
CS(=O)(=O)c1ccc(-c2ccc(CNc3ccc(O)c(C(=O)O)c3)cc2)cc1 [Example 34, 2-Hydroxy-5-(((4′-(methylsulfonyl)-[1,1′-biphenyl]-4-yl)methyl)amino)benzoic acid] | 0% | 0% | 0% | 
O=C(O)c1cc(NCc2ccc(-c3ccc(C(F)(F)F)cc3)cc2)ccc1O [Example 32, 2-hydroxy-5-(((4′-(trifluoromethyl)-[1,1′-biphenyl]-4-yl)methyl)amino)benzoic acid] | 28% | 43% | 64% | 
N#Cc1cc(NCc2ccc(-c3ccc(F)cc3)cc2)ccc1O [Example 47, 5-(((4′-Fluoro-[1,1′-biphenyl]-4-yl)methyl)amino)-2-hydroxybenzonitrile] | 40% | 80% | 99% | 
O=C(O)c1cc(NCc2ccc(-c3ccccc3)cc2)ccc1O [Example 37, 5-(([1,1′-Biphenyl]-4-ylmethyl)amino)-2-hydroxybenzoic acid] | 0% | 28% | 66% | 
